Experimental data published in patent US10260068B2, “Prophylactic agent and therapeutic agent for fibrodysplasia ossificans progressiva” (Sumitomo Dainippon Pharma Co., Ltd., priority 2014, dated 2019).

T1: wild type ACVR1 (Homo sapiens, UniProt Q04771)
T1 construct: an iPS cell line with the ACVR1 gene mutation repaired to the normal type (wild type) by gene repair by a BAC knockin vector; endogenous in cells; host or cells: mesenchymal stem cell-like cells differentiated from the gene-corrected iPS cell clone
T1 sequence (Q04771 21-509): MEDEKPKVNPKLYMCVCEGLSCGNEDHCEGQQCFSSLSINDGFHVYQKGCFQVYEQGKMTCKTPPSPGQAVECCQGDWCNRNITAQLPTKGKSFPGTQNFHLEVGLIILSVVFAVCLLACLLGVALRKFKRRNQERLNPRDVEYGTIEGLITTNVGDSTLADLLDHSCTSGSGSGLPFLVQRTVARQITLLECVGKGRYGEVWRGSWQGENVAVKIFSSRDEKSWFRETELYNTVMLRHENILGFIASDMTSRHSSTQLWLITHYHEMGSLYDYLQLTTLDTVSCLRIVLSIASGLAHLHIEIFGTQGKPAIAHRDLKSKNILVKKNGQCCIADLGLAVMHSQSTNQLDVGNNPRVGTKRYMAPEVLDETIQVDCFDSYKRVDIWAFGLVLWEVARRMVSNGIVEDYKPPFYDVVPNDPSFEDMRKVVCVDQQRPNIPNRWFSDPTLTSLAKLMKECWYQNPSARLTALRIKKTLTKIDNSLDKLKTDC

B1: BMP-7: Recombinant Human BMP-7 (R&D Systems); cytokine of the BMP family (protein)
chain: STGSKQRSQNRSKTPKNQEALRMANVAENSSSDQRQACKKHELYVSFRDLGWQDWIIAPEGYAAYYCEGECAFPLNSYMNATNHAIVQTLVHFINPETVPKPCCAPTQLNAISVLYFDDSSNVILKKYRNMVVRACGCH

Assays:
SMAD1/5/8 [1] = test: SMAD1/5/8 phosphorylation by Western blotting in FOP patient derived cells; assay type: cell-based, human; conditions: for amount of total SMAD1/5/8: Western blotting, 60 minutes treatment, FOP patient derived and gene-corrected clone derived cells
Experimental: (§1) Mesenchymal stem cell-like cells from a patient iPS cell line and a gene-corrected iPS cell clone were each prepared by the same method as Example 1. Culturing was conducted for 60 minutes with addition of 10 ng/mL and 100 ng/mL of human activin A or 100 ng/mL of human BMP-7 to the mesenchymal stem cell-like cells. The cells were then solubilized with 300 μL of a dissolving solution (70 mM Tris-HCl buffer solution, pH 6.8, 11.2% glycerol, 3% sodium dodecyl sulfate), and a cell extract was prepared. The amount of phosphorylated SMAD1/5/8 and the amount of total SMAD1/5/8 in the obtained cell extract were quantified by Western blotting. As the primary antibody for phosphorylated SMAD1/5/8 there was used rabbit anti-phosphorylated SMAD1/5/8 antibody [product of Cell Signaling Tech., trade name: Phospho-Smad1 (Ser463/465)/Smad5 (Ser463/465)/Smad8 (Ser426/428) Antibody (Rabbit)], and as the primary antibody for total SMAD1/5/8 there was used rabbit anti-total SMAD1/5/8 antibody [product of Santa Cruz Biotechnology, trade name: Smad1/5/8 Antibody (N-18)-R (Rabbit)]. The secondary antibody used was horseradish peroxidase conjugated anti-rabbit antibody (product of Cell Signaling Tech., trade name: Anti-rabbit IgG, HRP-linked Antibody). The substrate used for chemiluminescence was ECL Prime (product of GE Healthcare), and ChemiDocXRSPlus (product of Bio-Rad Laboratories, Inc.) was used for the detection.

SMAD1/5/8 [2] = test: SMAD1/5/8 phosphorylation by Western blotting in gene-corrected clone derived cells; assay type: cell-based, human; conditions: 10 and 100 ng/mL activin A or 100 ng/mL BMP-7, 60 minutes
Experimental: as §1, with “The substrate used for chemiluminescence was ECL Prime (product of GE Healthcare), and ChemiDocXRSPlus (product of Bio-Rad Laboratories, Inc.) was used for the detection.” left out

[3] = tested on: FOP patient derived cells; test: Differentiation to chondrocytes (Alcian blue, sulfated glycosaminoglycan assay) of FOP patient derived cells; assay type: cell-based, human; conditions: for cartilage induction (sulfated glycosaminoglycan assay): 100 ng/mL activin A, vs untreated group
Experimental: (§2) Mesenchymal stem cell-like cells from a patient iPS cell line and a gene-corrected iPS cell clone were each prepared by the same method as Example 1. The mesenchymal stem cell-like cells were cultured for 6 days under the medium conditions used in the method of Umeda et al. (Sci. Rep., 2012, 2, 455), for differentiation to chondrocytes. During differentiation, 100 ng/mL of human activin A, 100 ng/mL of human BMP-7 or 1 ng/mL of human TGF-β3 (product of R&D Systems, Inc., trade name: Recombinant Human TGF-beta 3) was added and the effect of each factor on differentiation to chondrocytes was examined. The extent of differentiation to chondrocytes was measured with Alcian blue dye and a sulfated glycosaminoglycan assay kit (product of Biocolor, Ltd., trade name: Blyscan Glycosaminoglycan Assay Kit). In FIG. 4, the bar graph indicates the mean values for each treated group, and the error bars represent S.D.

mutant ACVR1 = test: ID1 gene promoter luciferase reporter in U2OS cells with transfer of mutant ACVR1; assay type: cell-based, human; conditions: U2OS cells with transfer of each mutant ACVR1 of Table 1; 10 ng/mL, 20 hours
Experimental: A Firefly luciferase reporter plasmid having the promoter region of the ID1 gene, as a typical downstream gene of BMP (Genes Cells. 2002 September; 7(9):949-60), was mixed with a plasmid including different mutant ACVR1 genes reported to elicit FOP, and FuGene HD was used on U2OS cells for transfection. At 1 hour after transfection, human activin A (final concentration: 10 ng/mL) was added and the transfected cells were cultured for 20 hours. Next, the luciferase activity was measured according to the protocol provided with a Bright-Glo Luciferase Assay System (product of Promega Corp.). In FIG. 8, each sample name is listed according to Table 1 above, based on the amino acid mutation of ACVR1.

wild type ACVR1 = biological target: T1, wild type ACVR1; test: ID1 gene promoter luciferase reporter in U2OS cells with transfer of wild type ACVR1; assay type: cell-based; conditions: 10 ng/mL, 20 hours
[4] = tested on: gene-corrected clone derived cells; test: Differentiation to chondrocytes (sulfated glycosaminoglycan assay) of gene-corrected clone derived cells; assay type: cell-based, human; conditions: 100 ng/mL BMP-7 or 1 ng/mL TGF-β3, 6 days, vs untreated group
Experimental: as §2

[5] = FOP patient derived cells, 100 ng/mL BMP-7 or 1 ng/mL TGF-β3, 6 days

Molecule | phosphorylation of SMAD1/5/8 (SMAD1/5/8 [1]; FOP patient derived cells, 10 and 100 ng/mL activin A, 60 minutes) | amount of total SMAD1/5/8 (SMAD1/5/8 [1]) | phosphorylation of SMAD1/5/8 (SMAD1/5/8 [2]) | sulfated glycosaminoglycan production in FOP patient derived cells compared to gene-corrected cells ([3]; 100 ng/mL, 6 days) [fold] | cartilage induction (sulfated glycosaminoglycan assay) [3, 5] | differentiation to chondrocytes (Alcian blue staining) ([3]; FOP patient derived cells, 100 ng/mL, 6 days) | transcription activity via ACVR1 (ID1 gene promoter luciferase) (mutant ACVR1) | transcription activity via ACVR1 (ID1 gene promoter luciferase) (wild type ACVR1) | cartilage induction effect compared to the effect exhibited by activin A on FOP patient derived cells ([3]; 100 ng/mL BMP-7 or 1 ng/mL TGF-β3, 6 days) | cartilage induction (sulfated glycosaminoglycan assay) [4]
human activin A: Recombinant Human/Mouse/Rat Activin A (R&D Systems); homodimer of inhibin βA chains | induced | No significant change | no phosphorylation of SMAD1/5/8 was induced | 4 | very notably enhances | notably enhances | increased | not observed |  | 
B1 |  | No significant change | occurred |  | significantly enhanced |  |  |  | weaker | significantly enhanced
